# Assay results: patent US4661510A, “α-allenic-α-amino acids as enzyme inhibitors” (priority 1985, dated 1987)
# Key:
# [1] = target: T1, mammalian ornithine decarboxylase from rat liver (Rattus norvegicus, UniProt P09057); test: Inactivation of mammalian ornithine decarboxylase; type: biochemical; conditions: rat liver enzyme
# T1 construct: mammalian ornithine decarboxylase from rat liver; from tissue; host or cells: rat liver
# T1 sequence (P09057 1-461): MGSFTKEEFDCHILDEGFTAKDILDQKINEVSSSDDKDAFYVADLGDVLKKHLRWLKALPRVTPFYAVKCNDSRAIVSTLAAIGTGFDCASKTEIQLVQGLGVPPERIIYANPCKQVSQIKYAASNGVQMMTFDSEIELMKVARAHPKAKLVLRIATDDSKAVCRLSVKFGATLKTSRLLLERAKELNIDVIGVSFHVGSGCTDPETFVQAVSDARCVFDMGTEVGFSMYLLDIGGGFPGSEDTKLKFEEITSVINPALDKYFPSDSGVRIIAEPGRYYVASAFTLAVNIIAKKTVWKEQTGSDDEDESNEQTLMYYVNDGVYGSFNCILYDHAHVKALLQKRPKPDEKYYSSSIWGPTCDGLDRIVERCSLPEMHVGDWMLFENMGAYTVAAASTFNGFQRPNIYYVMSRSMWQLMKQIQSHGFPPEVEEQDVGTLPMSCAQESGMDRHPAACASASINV
# [2] = target: T2, bacterial ornithine decarboxylase from E. Coli (Escherichia coli, UniProt P21169); test: Inactivation of bacterial ornithine decarboxylase; type: biochemical; conditions: E. Coli enzyme
# T2 construct: bacterial ornithine decarboxylase from E. Coli; host or cells: E. coli
# T2 sequence (P21169 whole entry): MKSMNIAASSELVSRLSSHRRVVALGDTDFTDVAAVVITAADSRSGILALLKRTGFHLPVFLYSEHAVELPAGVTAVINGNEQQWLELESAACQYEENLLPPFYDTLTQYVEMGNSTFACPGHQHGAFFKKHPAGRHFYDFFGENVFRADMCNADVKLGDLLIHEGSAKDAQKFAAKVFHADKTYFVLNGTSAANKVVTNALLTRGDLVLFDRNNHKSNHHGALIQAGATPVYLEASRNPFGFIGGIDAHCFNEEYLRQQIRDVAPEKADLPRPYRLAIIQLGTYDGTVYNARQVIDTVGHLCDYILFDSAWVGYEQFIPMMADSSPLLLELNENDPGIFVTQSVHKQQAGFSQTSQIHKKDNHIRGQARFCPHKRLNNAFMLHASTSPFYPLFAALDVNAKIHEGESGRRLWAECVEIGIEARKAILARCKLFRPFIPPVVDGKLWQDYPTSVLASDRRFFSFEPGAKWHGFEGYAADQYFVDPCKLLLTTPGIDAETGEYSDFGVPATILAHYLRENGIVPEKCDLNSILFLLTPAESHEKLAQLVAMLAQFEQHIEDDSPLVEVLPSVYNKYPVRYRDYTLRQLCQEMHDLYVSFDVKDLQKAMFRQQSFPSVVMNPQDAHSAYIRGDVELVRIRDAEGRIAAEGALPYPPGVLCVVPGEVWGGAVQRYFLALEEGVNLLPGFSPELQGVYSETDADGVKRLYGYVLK
# [3] = system: dermatophytes; test: In vitro anti-microbial activity (dermatophytes); type: cell-based
# [4] = system: male mice; test: Toxicity (acute, oral, mouse); type: in vivo; conditions: male mice; 62.5, 125, 250 and 500 mg/kg in CMC vehicle; observed for 21 days
# Description: (§1) 2-amino-2-(3-hydroxybenzyl)penta-3,4-dienoic acid prepared in CMC vehicle was administered once daily to groups of 6 male mice at doses 0, 62.5, 125, 250, and 500 mg/kg. […] Therefore, the LD50 (acute, oral, mouse) for 2-amino-2-(3-hydroxybenzyl)penta-3,4-dienoic acid is greater than 500 mg/kg.
# [5] = Toxicity (acute, oral, mouse); type: in vivo; conditions: in vivo; acute, oral, mouse
# Description: as §1
# [6] = target: T3, bacterial tyrosine decarboxylase from Streptococcus faecallis (Enterococcus faecalis, UniProt Q838D6); test: Time dependent inactivation of tyrosine decarboxylase; type: biochemical; conditions: Streptococcus faecallis enzyme
# T3 construct: purchased from Sigma Chemical Co. as crude extracts; purchased Sigma Chemical Co; host or cells: Streptococcus faecalis, crude extract
# T3 sequence (Q838D6 1-620): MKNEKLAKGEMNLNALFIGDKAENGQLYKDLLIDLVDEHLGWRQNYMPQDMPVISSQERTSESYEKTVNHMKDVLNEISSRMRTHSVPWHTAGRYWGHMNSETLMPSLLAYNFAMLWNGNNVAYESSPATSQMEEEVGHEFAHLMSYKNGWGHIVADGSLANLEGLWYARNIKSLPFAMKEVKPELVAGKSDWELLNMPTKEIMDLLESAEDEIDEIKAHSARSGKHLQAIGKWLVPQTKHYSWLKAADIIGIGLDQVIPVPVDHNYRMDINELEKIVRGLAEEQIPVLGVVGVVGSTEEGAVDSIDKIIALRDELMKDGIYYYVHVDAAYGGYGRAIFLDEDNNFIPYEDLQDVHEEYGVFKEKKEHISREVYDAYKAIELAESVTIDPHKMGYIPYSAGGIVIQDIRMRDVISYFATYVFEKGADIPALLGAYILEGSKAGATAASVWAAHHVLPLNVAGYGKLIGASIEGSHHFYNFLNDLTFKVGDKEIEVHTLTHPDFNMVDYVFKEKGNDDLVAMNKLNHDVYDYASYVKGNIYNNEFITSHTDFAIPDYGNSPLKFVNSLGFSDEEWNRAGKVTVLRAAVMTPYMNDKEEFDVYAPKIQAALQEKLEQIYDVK
# Description: (§2) Mammalian DOPA decarboxylase was isolated and purified from porcine kidney by the procedure of Borri-Voltatorni et al [Eur. J. Biochem., 93, 181 (1979)] with modifications as introduced by Rudd and Thanassi [Biochemistry, 20, 7469 (1981)]. Bacterial L-phenylalanine and L-tyrosine decarboxylases ex Streptococcus faecallis were purchased from Sigma Chemical Co. as crude extracts and studied without further purification.
# (§3) The time dependent inactivation of bacterial aromatic amino acid decarboxylases with 200-1000 micromolar inhibitor, e.g. 2-amino-2-(4-hydroxybenzyl)-penta-3,4-dienoic acid or 2-amino-2-benzylpenta-3,4-dienoic acid, was monitored at pH 5.5 and 37° C. Residual activity of tyrosine decarboxylase ex Streptococcus faecallis was determined by measurement of p-tyramine production at pH 5.5 and 37° C. p-Tyramine was separated by HPLC and quantified by electrochemical oxidation at +0.7 volts.
# [7] = target: T4, phenylalanine decarboxylase from Streptococcus faecallis (Enterococcus faecalis, UniProt Q838D6); test: Time dependent inactivation of phenylalanine decarboxylase; type: biochemical; conditions: Streptococcus faecallis enzyme
# T4 construct: L-phenylalanine substrate, phenylethylamine by GC
# T4 sequence (Q838D6 1-620): T3 sequence (Q838D6 1-620)
# Description: as §2, §3
# Residual activity of L-phenylalanine decarboxylase ex Streptococcus faecallis with L-phenylalanine (2 mM) as substrate was meaasured by gas chromatographic analysis of phenylethylamine production. Direct injection of enzymatic reaction mixture (1-5 microliters) onto a standard glass column packed with 10% Apiezon L on Chromosorb 80/100 deactivated with 2% KOH allowed separation of aromatic amine from the reaction mixture. FID detection quantified the rate of product formation.
# [8] = target: T5, mammalian DOPA decarboxylase from porcine kidney (Sus scrofa, UniProt P80041); test: Time dependent inactivation of DOPA decarboxylase; type: biochemical; conditions: porcine kidney enzyme
# T5 construct: isolated and purified from porcine kidney; from tissue; host or cells: porcine kidney
# T5 sequence (P80041 1-486): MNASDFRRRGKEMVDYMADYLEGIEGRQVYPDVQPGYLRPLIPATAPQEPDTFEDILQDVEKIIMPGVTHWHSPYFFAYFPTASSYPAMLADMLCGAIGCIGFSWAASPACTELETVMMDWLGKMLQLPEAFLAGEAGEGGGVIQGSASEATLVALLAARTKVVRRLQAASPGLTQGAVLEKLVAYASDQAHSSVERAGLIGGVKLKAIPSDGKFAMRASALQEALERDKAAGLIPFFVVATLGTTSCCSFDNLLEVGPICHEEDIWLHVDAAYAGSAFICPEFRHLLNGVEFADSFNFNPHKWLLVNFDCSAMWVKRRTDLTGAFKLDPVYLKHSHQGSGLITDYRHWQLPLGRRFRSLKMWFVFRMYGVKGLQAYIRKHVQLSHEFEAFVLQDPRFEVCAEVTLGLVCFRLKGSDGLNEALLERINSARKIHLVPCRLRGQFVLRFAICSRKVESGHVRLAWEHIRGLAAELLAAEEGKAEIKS
# Description: as §2
# Time dependent inactivation of mammalian DOPA decarboxylase was monitored by incubation of enzyme with 4 to 100 molar equivalent excess of 2-amino-2-(3,4-dihydroxybenzyl)penta-3,4-dienoic acid at pH 6.8 and 37° C. At appropriate time intervals, aliquots of the mixture were withdrawn, diluted 30-fold into excess L-DOPA (2 mM) and residual DOPA decarboxylase activity determined.
# DOPA decarboxylase activity was routinely measured by liquid chromatography and electrochemical detection of catecholamine products. DOPA decarboxylase (1-5 micrograms, 1-20 units) was incubated with L-DOPA (2000 micromolar, 150 microliters) and PLP (10 micromolar) in 0.1M phosphate at pH 6.8 and 37° C. After 1-10 minutes, the reaction was quenched with citric acid (2M, 25 microliters), diluted two-fold with distilled water and 10 microliter aliquots were analyzed by HPLC on a reverse phase Brownlee RP-18 column. Isocratic elution with pH 4.35 buffer [0.1M NaOAc ([…]), 0.1M citric acid (32% v/v) and methanol (15% v/v)] at a flow rate of 2.5 ml/min. afforded baseline resolution of dopamine (RT=2.8 min.) from L-DOPA (RT=1.9 min.).
# Quantification of dopamine was accomplished by preoxidation of the catechol to the ortho quinone at +0.25 volts in the first analytical electrochemical cell, followed by the selective reduction of ortho quinone in the second analytical cell set at -0.25 volts. This configuration for the ESA electrochemical detector allowed highly sensitive and selective detection of catecholamines (less than 10 picomoles/injection).
# [9] = system: Male Sim:(S.D.)fBR rats; test: In vivo potentiation of L-DOPA induced behaviors; parameters: species or system rat; conditions: for Mean Behavior Score at 60 min.: score scale 0-6, before 200 mg/kg L-DOPA i.p.
# Description: Male Sim:(S.D.)fBR rats weighing 180-335 g were used for these experiments. Groups of 5 rats were individually housed and received water, or various doses of either 2-amino-2-(3-hydroxybenzyl)penta-3,4-dienoic acid or 2-amino-2-(3,4-dihydroxybenzyl)penta-3,4-dienoic acid 30 l minutes before 200 mg/kg of L-DOPA, i.p. Beginning 15 minutes later, behavioral observations were made at 15 minutes intervals for 2 hours. Behavoir was scored as follows:
# 3=Alert with intermittent sniffing
structure (smiles),measurement,setting,value
"C=C=CC(N)(CCCN)C(=O)O (stereo not drawn) [2-amino-2-(3-amino-n-propyl)penta-3,4-dienoic acid]",irreversible inactivation of ornithine decarboxylase,[1],irreversible inactivators
same,irreversible inactivation of ornithine decarboxylase,[2],irreversible inactivators
"C=C=C(C)C(N)C(=O)O (stereo not drawn) [2-amino-3-methylpenta-3,4-dienoic acid]",activity in vitro against a spectrum of dermatophytes,[3],active
"C=C=CC(N)(Cc1cccc(O)c1)C(=O)O (stereo not drawn) [2-amino-2-(3-hydroxybenzyl)penta-3,4-dienoic acid]",deaths,[4],no deaths
same,LD50 at 504 h,[5],> 500 mg/kg
same,irreversible inactivation of tyrosine decarboxylase,[6],irreversible inactivators
same,irreversible inactivation of phenylalanine decarboxylase,[7],irreversible inactivators
same,irreversible inactivation of DOPA decarboxylase,[8],irreversible inactivators
same,potentiation of the behaviors induced by L-DOPA,"[9]; 3-30 mg/kg i.p. or 30-150 mg/kg s.c., 30 minutes before 200 mg/kg L-DOPA i.p.",potentiated the behaviors induced by L-DOPA
same,Mean Behavior Score at 60 min.,[9]; 3-30 mg/kg i.p.,3.4
same,potentiation of DOPA behaviors,[9]; 3 to 30 mg/kg i.p. or 30 to 150 mg/kg s.c.,potentiate DOPA behaviors
same,Mean Behavior Score at 60 min.,[9]; 30-150 mg/kg s.c.,3.4
